# Test results reported in patent publication US5776944A, “7-(4-aminomethyl-3-methyloxyiminopyrroplidin-1-yl)-1-cyclopropyl-6-flu oro-4-oxo-1,4-dihydro-1,8-naphthyridine-3-carboxylic acid and the process for the preparation thereof” (LG Chemical Ltd., priority 1994, dated 1998).
# Read-outs that look alike come from different tables or passages of the source.
# How the values were obtained:
# [1] = phosphate buffered solution
# test strains = assay: In vitro antibacterial activity, overall finding, Biological Example 4; type: cell-based; conditions: Tables 31 and 32
# Protocol: (§1) In order to determine the antibacterial activitiers of the E- and Z-isomner of the compound 180 which were separated in Example 203, and of 7- (4-aminomethyl-3-methyloxylminopyrrolidin-1-yl)-1-cyclopropyl-6-fluoro-4-oxo-1,4-dihydro-1,8-naphthyridine-3-carboxylic acid methanesulfonate prepared in Example 204, in vitro antibacterial activities of them were measured using agar medium dilution method. The results were as described in the following Tables 31 and 32.
# [2] = system: Streptococcus faecalis 29212; assay: In vitro antibacterial activity (MIC, agar medium dilution), Biological Example 4; type: cell-based; conditions: Enterococcus faecalis, 29212, 18 h, Streptococcus faecalis 29212, Table 31; read-out: Minimum Inhibitory Concentration: MIC
# [3] = system: Escherichia coli TEM3 3455E; assay: as above; type: cell-based; conditions: TEM33455E, 18 h
# [4] = system: Pseudomonas aeruginosa 10145; assay: as above; type: cell-based; conditions: Pseudomonas aeruginosa, 10145, 18 h, read-out: Minimum Inhibitory Concentration: MIC
# [5] = system: Staphylococcus epidermidis 887E; assay: as above; type: cell-based; conditions: 18 h, Staphylococcus epidermidis 887E, Table 31, read-out: Minimum Inhibitory Concentration: MIC
# [6] = system: Pseudomonas aeruginosa 6065Y; assay: as above; type: cell-based; conditions: 18 h, Table 31, read-out: Minimum Inhibitory Concentration: MIC
# Protocol: as §1
# Seratis marsecence 1826E = assay: as above; type: cell-based; conditions: for MIC: 18 h, Table 31, read-out: Minimum Inhibitory Concentration: MIC
# Protocol: as §1
# Enterobacter cloacae P99 = assay: microbe, parasite or virus in culture; type: cell-based; conditions: P99, 18 h, read-out: Minimum Inhibitory Concentration: MIC
# Micrococcus luteus 9341 = assay: In vitro antibacterial activity (MIC, agar medium dilution), Biological Example 4; type: cell-based; conditions: 18 h; Micrococcus luteus 9341, Table 31; read-out: Minimum Inhibitory Concentration: MIC
# [7] = system: Citrobacter diversus 2046E; assay: as above; type: cell-based; conditions: Citrobacter koseri, 18 h, Table 31, read-out: Minimum Inhibitory Concentration: MIC
# [8] = system: Escherichia coli TEM9 2639E; assay: as above; type: cell-based; conditions: TEM92639E, 18 h, read-out: Minimum Inhibitory Concentration: MIC
# [9] = system: Staphylococcus aureus giorgio; assay: as above; type: cell-based; conditions: 18 h, Table 31, read-out: Minimum Inhibitory Concentration: MIC
# Escherichia coli 851E = assay: as above; type: cell-based; conditions: 18 h, Table 31, read-out: Minimum Inhibitory Concentration: MIC
# [10] = system: Acinetobacter calcoaceticus 15473; assay: as above; type: cell-based; conditions: 18 h; Acinetobacter calcoaceticus 15473, Table 31; read-out: Minimum Inhibitory Concentration: MIC
# [11] = system: Klebsiella aerogenes 1082E; assay: as above; type: cell-based; conditions: 18 h, Table 31, read-out: Minimum Inhibitory Concentration: MIC
# Staphylococcus aureus 77 = assay: as above; type: cell-based; conditions: 18 h; Staphylococcus aureus 77, Table 31; read-out: Minimum Inhibitory Concentration: MIC
# [12] = system: Enterobacter cloacae 1194E; assay: microbe, parasite or virus in culture; type: cell-based; conditions: 18 h, read-out: Minimum Inhibitory Concentration: MIC
# [13] = system: Escherichia coli TEM5 3739E; assay: In vitro antibacterial activity (MIC, agar medium dilution), Biological Example 4; type: cell-based; conditions: TEM53739E, 18 h, read-out: Minimum Inhibitory Concentration: MIC
# [14] = system: Staphylococcus aureus 241; assay: as above; type: cell-based; conditions: Staphylococcus aureus, 241, 18 h, Staphylococcus aureus 241, Table 31; read-out: Minimum Inhibitory Concentration: MIC
# Escherichia coli 10536 = assay: as above; type: cell-based; conditions: Escherichia coli, 10536, 18 h, Escherichia coli 10536, Table 31; read-out: Minimum Inhibitory Concentration: MIC
# [15] = system: Staphylococcus aureus 6538p; assay: as above; type: cell-based; conditions: 18 h, Table 31, read-out: Minimum Inhibitory Concentration: MIC
# [16] = system: Klebsiella aerogenes 1976E; assay: as above; type: cell-based; conditions: 18 h, Table 31, read-out: Minimum Inhibitory Concentration: MIC
# Escherichia coli 3190Y = assay: as above; type: cell-based; conditions: 18 h, Table 31, read-out: Minimum Inhibitory Concentration: MIC
# Proteus vulgaris 6059 = assay: as above; type: cell-based; conditions: 18 h; Proteus vulgaris 6059, Table 31; read-out: Minimum Inhibitory Concentration: MIC
# [17] = system: Staphylococcus epidermidis 178; assay: as above; type: cell-based; conditions: 18 h; Staphylococcus epidermidis 178, Table 31; read-out: Minimum Inhibitory Concentration: MIC
# [18] = system: Salmonella thypimurium 14028; assay: as above; type: cell-based; conditions: 18 h; Salmonella thypimurium 14028, Table 31; read-out: Minimum Inhibitory Concentration: MIC
# Bacillus subtilis 6633 = assay: as above; type: cell-based; conditions: 18 h; Bacillus subtilis 6633, Table 31; read-out: Minimum Inhibitory Concentration: MIC
# [19] = system: Pseudomonas aeruginosa 1912E; assay: as above; type: cell-based; conditions: 18 h, Table 31, read-out: Minimum Inhibitory Concentration: MIC
structure (smiles),measurement,setting,value
"CON=C1CN(c2nc3c(cc2F)c(=O)c(C(=O)O)cn3C2CC2)CC1CN (centres unmarked) [free form, 7-(4-aminomethyl-3-methyloxyiminopyrrolidin-1-yl)-1-cyclopropyl-6-fluoro-4-oxo-1,4-dihydro-1,8-naphthyridine-3-carboxylic acid]",Water Solubility,[1]; pH 2,14.6
same,Water Solubility,[1]; pH 7,0.007
same,antibacterial activity,test strains,excellent antibacterial activity
"O=C(O)c1cn(C2CC2)c2cc(N3CCNCC3)c(F)cc2c1=O [Ciprofloxacin, ciprofloxacin, reference compound]",MIC,[2],1 µg/mL
same,MIC,"[3]; read-out: Minimum Inhibitory Concentration: MIC, Escherichia coli TEM3 3455E, Table 32, ratio of weight",0.5 µg/mL
same,MIC,"[4]; Pseudomonas aeruginosa 10145, Table 32, ratio of weight",0.5 µg/mL
same,MIC,[5],0.063 µg/mL
same,MIC,[6],4 µg/mL
same,MIC,Seratis marsecence 1826E,0.063 µg/mL
same,Minimum Inhibitory Concentration: MIC,"Seratis marsecence 1826E; Table 32, ratio of weight",0.063 µg/mL
CO/N=C1\CN(c2nc3c(cc2F)c(=O)c(C(=O)O)cn3C2CC2)CC1CN (stereo not drawn) [Z-isomer],MIC,Enterobacter cloacae P99,≤ 0.008 µg/mL
same,MIC,Micrococcus luteus 9341,0.13 µg/mL
same,MIC,[7],0.031 µg/mL
same,MIC,[8],0.031 µg/mL
same,MIC,[9],≤ 0.008 µg/mL
same,MIC,Escherichia coli 851E,0.016 µg/mL
same,MIC,[10],0.063 µg/mL
same,MIC,[11],0.031 µg/mL
same,MIC,[2],0.063 µg/mL
same,MIC,Staphylococcus aureus 77,0.031 µg/mL
same,MIC,[12],0.031 µg/mL
same,MIC,[13],0.13 µg/mL
same,MIC,"[3]; read-out: Minimum Inhibitory Concentration: MIC, Escherichia coli TEM3 3455E, Table 31",0.13 µg/mL
same,MIC,[14],4 µg/mL
same,MIC,Escherichia coli 10536,≤ 0.008 µg/mL
same,MIC,[15],≤ 0.008 µg/mL
same,MIC,[16],0.063 µg/mL
same,MIC,Escherichia coli 3190Y,≤ 0.008 µg/mL
same,MIC,"[4]; Pseudomonas aeruginosa 10145, Table 31",0.5 µg/mL
same,MIC,[5],≤ 0.008 µg/mL
same,MIC,Proteus vulgaris 6059,0.25 µg/mL
same,antibacterial activity,test strains,superior antibacterial activity to the E-isomer
same,MIC,[17],4 µg/mL
same,MIC,[18],0.031 µg/mL
same,MIC,[6],8 µg/mL
same,MIC,Seratis marsecence 1826E,0.25 µg/mL
same,MIC,Bacillus subtilis 6633,≤ 0.008 µg/mL
same,MIC,[19],0.5 µg/mL
